# Test results: PubChem BioAssay (NCI)
#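 Briefly, cells in 96-well plates were exposed to five compound concentrations for 48 h, and endpoints were estimated by linear interpolation. GI50: concentration for 50% inhibition of growth. TGI marks complete inhibition of growth.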
# What was measured:
# Assay in all cases: growth of human tumour cells (NCI), 48 h
# SN12C renal = test system: SN12C renal
# SF-539 CNS = test system: SF-539 CNS
# NCI-H226 lung = test system: NCI-H226 lung
# HS 578T breast = test system: HS 578T breast
# KM12 colon = test system: KM12 colon
# U251 CNS = test system: U251 CNS
# MALME-3M melanoma = test system: MALME-3M melanoma
# TK-10 renal = test system: TK-10 renal
# NCI-H460 lung = test system: NCI-H460 lung
# UACC-257 melanoma = test system: UACC-257 melanoma
# IGROV1 ovarian = test system: IGROV1 ovarian
# T-47D breast = test system: T-47D breast
# HOP-92 NSCLC = test system: HOP-92 NSCLC
# M14 melanoma = test system: M14 melanoma
# RPMI-8226 leukemia = test system: RPMI-8226 leukemia
# COLO 205 colon = test system: COLO 205 colon
# CCRF-CEM leukemia = test system: CCRF-CEM leukemia
# ACHN renal = test system: ACHN renal
# CAKI-1 renal = test system: CAKI-1 renal
# MOLT-4 leukemia = test system: MOLT-4 leukemia
# OVCAR-3 ovarian = test system: OVCAR-3 ovarian
# HOP-62 NSCLC = test system: HOP-62 NSCLC
# HCT-15 colon = test system: HCT-15 colon
# PC-3 prostate = test system: PC-3 prostate
# OVCAR-8 ovarian = test system: OVCAR-8 ovarian
# MDA-MB-435 = test system: MDA-MB-435
# HCC-2998 colon = test system: HCC-2998 colon
# OVCAR-4 ovarian = test system: OVCAR-4 ovarian
# A549 NSCLC = test system: A549 NSCLC
# HT29 colon = test system: HT29 colon
# EKVX NSCLC = test system: EKVX NSCLC
# UO-31 renal = test system: UO-31 renal
# NCI-H522 lung = test system: NCI-H522 lung
# MDA-MB-231 breast = test system: MDA-MB-231 breast
# UACC-62 melanoma = test system: UACC-62 melanoma
# NCI/ADR-RES ovarian = test system: NCI/ADR-RES ovarian
# MCF7 breast = test system: MCF7 breast
# NCI-H23 lung = test system: NCI-H23 lung
# SK-MEL-28 melanoma = test system: SK-MEL-28 melanoma
# SK-MEL-2 melanoma = test system: SK-MEL-2 melanoma
# HL-60(TB) leukemia = test system: HL-60(TB) leukemia
# SW-620 colon = test system: SW-620 colon
# SK-OV-3 ovarian = test system: SK-OV-3 ovarian
# RXF 393 renal = test system: RXF 393 renal
# SK-MEL-5 melanoma = test system: SK-MEL-5 melanoma
# SR leukemia = test system: SR leukemia
# 786-0 renal = test system: 786-0 renal
# OVCAR-5 ovarian = test system: OVCAR-5 ovarian
# DU-145 prostate = test system: DU-145 prostate
# K-562 leukemia = test system: K-562 leukemia
# SF-268 CNS = test system: SF-268 CNS
# BT-549 breast = test system: BT-549 breast
# LOX IMVI melanoma = test system: LOX IMVI melanoma
# SNB-19 CNS = test system: SNB-19 CNS
# SF-295 CNS = test system: SF-295 CNS
# SNB-75 CNS = test system: SNB-75 CNS
# HCT-116 colon = test system: HCT-116 colon
smiles,measurement,setting,value
O[C@H]1CO[C@H]2[C@@H]1OC[C@@H]2Oc1ccc(Nc2ccnc(Nc3ccc(O[C@H]4CO[C@H]5[C@@H]4OC[C@@H]5O)c(Cl)c3)n2)cc1Cl,GI50,SN12C renal,1590 nM
same,TGI,SN12C renal,6150 nM
same,GI50,SF-539 CNS,2220 nM
same,TGI,SF-539 CNS,7160 nM
same,GI50,NCI-H226 lung,1480 nM
same,TGI,NCI-H226 lung,3610 nM
same,GI50,HS 578T breast,1290 nM
same,TGI,HS 578T breast,4800 nM
same,GI50,KM12 colon,1360 nM
same,TGI,KM12 colon,3480 nM
same,GI50,U251 CNS,1620 nM
same,TGI,U251 CNS,4020 nM
same,GI50,MALME-3M melanoma,1090 nM
same,TGI,MALME-3M melanoma,3090 nM
same,GI50,TK-10 renal,2140 nM
same,TGI,TK-10 renal,10500 nM
same,GI50,NCI-H460 lung,1400 nM
same,TGI,NCI-H460 lung,3050 nM
same,GI50,UACC-257 melanoma,2700 nM
same,TGI,UACC-257 melanoma,10200 nM
same,GI50,IGROV1 ovarian,757 nM
same,TGI,IGROV1 ovarian,6080 nM
same,GI50,T-47D breast,456 nM
same,TGI,T-47D breast,2890 nM
same,GI50,HOP-92 NSCLC,1520 nM
same,TGI,HOP-92 NSCLC,3150 nM
same,GI50,M14 melanoma,1480 nM
same,TGI,M14 melanoma,4180 nM
same,GI50,RPMI-8226 leukemia,1050 nM
same,TGI,RPMI-8226 leukemia,3240 nM
same,GI50,COLO 205 colon,1860 nM
same,TGI,COLO 205 colon,6160 nM
same,GI50,CCRF-CEM leukemia,666 nM
same,TGI,CCRF-CEM leukemia,5310 nM
same,GI50,ACHN renal,2800 nM
same,TGI,ACHN renal,10600 nM
same,GI50,CAKI-1 renal,1790 nM
same,TGI,CAKI-1 renal,10200 nM
same,GI50,MOLT-4 leukemia,1720 nM
same,TGI,MOLT-4 leukemia,6040 nM
same,GI50,OVCAR-3 ovarian,1560 nM
same,TGI,OVCAR-3 ovarian,7170 nM
same,GI50,HOP-62 NSCLC,1710 nM
same,TGI,HOP-62 NSCLC,4030 nM
same,GI50,HCT-15 colon,2320 nM
same,TGI,HCT-15 colon,6600 nM
same,GI50,PC-3 prostate,2260 nM
same,TGI,PC-3 prostate,11200 nM
same,GI50,OVCAR-8 ovarian,1380 nM
same,TGI,OVCAR-8 ovarian,11300 nM
same,GI50,MDA-MB-435,2310 nM
same,TGI,MDA-MB-435,10000 nM
same,GI50,HCC-2998 colon,2270 nM
same,TGI,HCC-2998 colon,6550 nM
same,GI50,OVCAR-4 ovarian,1540 nM
same,TGI,OVCAR-4 ovarian,5240 nM
same,GI50,A549 NSCLC,2840 nM
same,TGI,A549 NSCLC,11500 nM
same,GI50,HT29 colon,2480 nM
same,TGI,HT29 colon,15400 nM
same,GI50,EKVX NSCLC,2400 nM
same,TGI,EKVX NSCLC,8860 nM
same,GI50,UO-31 renal,1550 nM
same,TGI,UO-31 renal,3060 nM
same,GI50,NCI-H522 lung,1170 nM
same,TGI,NCI-H522 lung,3690 nM
same,GI50,MDA-MB-231 breast,1810 nM
same,TGI,MDA-MB-231 breast,6040 nM
same,GI50,UACC-62 melanoma,1110 nM
same,TGI,UACC-62 melanoma,2750 nM
same,GI50,NCI/ADR-RES ovarian,5820 nM
same,TGI,NCI/ADR-RES ovarian,> 100000 nM
same,GI50,MCF7 breast,1730 nM
same,TGI,MCF7 breast,5440 nM
same,GI50,NCI-H23 lung,1490 nM
same,TGI,NCI-H23 lung,4600 nM
same,GI50,SK-MEL-28 melanoma,3040 nM
same,TGI,SK-MEL-28 melanoma,11600 nM
same,GI50,SK-MEL-2 melanoma,1710 nM
same,TGI,SK-MEL-2 melanoma,5020 nM
same,GI50,HL-60(TB) leukemia,1570 nM
same,TGI,HL-60(TB) leukemia,4700 nM
same,GI50,SW-620 colon,2360 nM
same,TGI,SW-620 colon,6860 nM
same,GI50,SK-OV-3 ovarian,2530 nM
same,TGI,SK-OV-3 ovarian,10000 nM
same,GI50,RXF 393 renal,1500 nM
same,TGI,RXF 393 renal,3800 nM
same,GI50,SK-MEL-5 melanoma,1170 nM
same,TGI,SK-MEL-5 melanoma,2430 nM
same,GI50,SR leukemia,2280 nM
same,TGI,SR leukemia,15300 nM
same,GI50,786-0 renal,2980 nM
same,TGI,786-0 renal,15100 nM
same,GI50,OVCAR-5 ovarian,2470 nM
same,TGI,OVCAR-5 ovarian,8030 nM
same,GI50,DU-145 prostate,1560 nM
same,TGI,DU-145 prostate,4190 nM
same,GI50,K-562 leukemia,1270 nM
same,TGI,K-562 leukemia,18400 nM
same,GI50,SF-268 CNS,1630 nM
same,TGI,SF-268 CNS,4980 nM
same,GI50,BT-549 breast,2200 nM
same,TGI,BT-549 breast,8140 nM
same,GI50,LOX IMVI melanoma,1260 nM
same,TGI,LOX IMVI melanoma,3180 nM
same,GI50,SNB-19 CNS,2750 nM
same,TGI,SNB-19 CNS,7980 nM
same,GI50,SF-295 CNS,1650 nM
same,TGI,SF-295 CNS,3220 nM
same,GI50,SNB-75 CNS,1270 nM
same,TGI,SNB-75 CNS,4770 nM
same,GI50,HCT-116 colon,2240 nM
same,TGI,HCT-116 colon,9120 nM
